pIC50: −log10 of the molar value.
Assays:
IKKβ [1] = molecular target: T1, IKKβ (Homo sapiens, UniProt O14920); assay: IKKβ kinase inhibition; format: biochemical; conditions: table of derivatives; read-out: IKKβ (IC50)
T1 sequence (O14920 1-756): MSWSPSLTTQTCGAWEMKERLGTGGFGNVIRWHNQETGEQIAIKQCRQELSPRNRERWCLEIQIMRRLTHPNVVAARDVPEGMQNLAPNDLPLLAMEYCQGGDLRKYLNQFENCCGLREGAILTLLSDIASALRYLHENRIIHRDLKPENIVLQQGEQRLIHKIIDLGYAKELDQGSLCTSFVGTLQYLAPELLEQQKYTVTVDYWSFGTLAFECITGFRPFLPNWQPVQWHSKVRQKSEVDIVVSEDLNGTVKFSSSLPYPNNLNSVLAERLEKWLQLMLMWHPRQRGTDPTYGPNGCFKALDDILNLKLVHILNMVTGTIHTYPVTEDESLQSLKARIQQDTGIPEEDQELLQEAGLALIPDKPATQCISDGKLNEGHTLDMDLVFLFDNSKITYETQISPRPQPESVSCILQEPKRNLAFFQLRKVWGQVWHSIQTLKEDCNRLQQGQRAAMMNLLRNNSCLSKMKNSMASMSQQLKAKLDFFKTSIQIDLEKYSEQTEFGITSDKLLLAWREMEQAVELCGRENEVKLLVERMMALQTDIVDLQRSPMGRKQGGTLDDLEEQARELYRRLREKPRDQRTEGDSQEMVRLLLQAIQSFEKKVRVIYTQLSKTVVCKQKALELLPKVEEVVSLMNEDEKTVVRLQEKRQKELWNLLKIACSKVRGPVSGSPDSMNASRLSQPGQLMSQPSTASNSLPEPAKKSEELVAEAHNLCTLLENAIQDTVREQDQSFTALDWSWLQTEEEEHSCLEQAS
Description: To further explore how (+)-ainsliadimer A inactivates IKKα/β, we conducted the molecular dynamics (MD) simulations using the first crystal structure of IKKβ^29 to sample the conformational states of IKKβ upon 223 binding. […] We next asked whether 223 could directly affect IKKβ kinase activity.

phosphorylation of IκBα = assay: LPS induced NF-κB activation: IκBα phosphorylation in RAW264.7 cells (western blot); format: cell-based, mouse; conditions: Raw 264.7 cells pre-incubated with 4 μM for 2 h, 20 ng/ml LPS, 20 minutes, western blot
NF-κB activation = NF-κB activation (SAR analogs and biotin probes)
Description: In order to evaluate which of them is critical for the binding of 223, we individually mutated these nine cysteine residues of IKKβ into alanines.

[2] = tested on: BGC-823 human gastric adenocarcinoma xenograft; assay: BGC-823 xenograft in nude mice; format: in vivo; conditions: 223 25 mg/kg, qdx8; HCPT 30 mg/kg, q6dx2
Procedure: Next we further examined anti-tumor effect of 223 in vivo. Nude mice bearing a BGC-823 human gastric adenocarcinoma xenograft were treated with vehicle or 223 (25 mg/kg, qdx8) or 10-hydroxycamptothecin (HCPT), a widely used anti-tumor drug (30 mg/kg, q6dx2).

IKKα = molecular target: T2, IKKα (Homo sapiens, UniProt O15111); assay: Pull-down from 293T cell lysates with streptavidin agarose beads; format: binding
T2 construct: endogenous in cells; host or cells: 293T
Procedure: (§1) To identify cellular proteins interacting with 223, we performed pull-down experiments using Probe and NC as the positive and negative probe, respectively. 293T cell lysates were incubated with streptavidin agarose beads which were pre-coupled with positive probe or negative probe. The proteins precipitated by streptavidin agarose beads were resolved by SDS-PAGE and stained with silver. […] We further monitored the presences of IKKα and IKKβ in the precipitates by immunoblotting.

IKKβ [3] = molecular target: T1, IKKβ; assay: as above; format: binding
Procedure: as §1

[4] = tested on: IKKβ C46 containing peptide (#1, #2; amino acids 41-53); assay: Peptide binding by MALDI-TOF; design: species or system human
Procedure: (§2) This peptide was tested for binding to 223 and probe by using MALDI-TOF (Matrix-Assisted […] Desorption/Ionization Time of Flight). m/z values at 2,047.978 and 2,479.259 were well matched with the calculated weights of #1+223 and #1+Probe, respectively. […] As expected, the peptide #2 containing amino acids 41-53 of human IKKβ interacted with both 223 and probe.

[5] = molecular target: T3, IKKβ C46 containing peptide (#1, #2; amino acids 41-53) (Homo sapiens, UniProt O14920); assay: Peptide binding by MALDI-TOF
T3 construct: encompasses amino acids 41-53 of human IKKβ; made in house; host or cells: chemical peptide synthesis
Procedure: as §2

[6] = tested on: IKKβ C215 containing peptides #3 and #4; assay: Peptide binding by MALDI-TOF; design: species or system human
[7] = tested on: peptides 1A, 2A, 1S and 2S (cysteine 46 replaced by alanine or serine); assay: Peptide binding by MALDI-TOF; design: species or system human
recombinant Flag-IKKα = molecular target: T4, recombinant Flag-IKKα (Homo sapiens, UniProt O15111); assay: Binding to purified recombinant protein (SDS-PAGE, streptavidin blot); conditions: increasing concentrations
T4 construct: made in house; host or cells: 293T cells (transient transfection, anti-Flag purification)
Procedure: To determine whether 223 directly binds to IKKα and IKKβ, we generated recombinant IKKα and IKKβ proteins for further analysis. 293T cells were transfected with Flag-IKKα or Flag-IKKβ plasmid, and the recombinant Flag-IKKα or Flag-IKKβ was captured by anti-Flag agarose beads and was then eluted off the beads using Flag peptide. The purified Flag-IKKα or Flag-IKKβ was incubated with DMSO or increasing concentrations of Probe, and then the mixtures were resolved by SDS-PAGE, followed by immunoblotting with streptavidin or anti-Flag antibody.

T4 sequence (O15111 whole entry): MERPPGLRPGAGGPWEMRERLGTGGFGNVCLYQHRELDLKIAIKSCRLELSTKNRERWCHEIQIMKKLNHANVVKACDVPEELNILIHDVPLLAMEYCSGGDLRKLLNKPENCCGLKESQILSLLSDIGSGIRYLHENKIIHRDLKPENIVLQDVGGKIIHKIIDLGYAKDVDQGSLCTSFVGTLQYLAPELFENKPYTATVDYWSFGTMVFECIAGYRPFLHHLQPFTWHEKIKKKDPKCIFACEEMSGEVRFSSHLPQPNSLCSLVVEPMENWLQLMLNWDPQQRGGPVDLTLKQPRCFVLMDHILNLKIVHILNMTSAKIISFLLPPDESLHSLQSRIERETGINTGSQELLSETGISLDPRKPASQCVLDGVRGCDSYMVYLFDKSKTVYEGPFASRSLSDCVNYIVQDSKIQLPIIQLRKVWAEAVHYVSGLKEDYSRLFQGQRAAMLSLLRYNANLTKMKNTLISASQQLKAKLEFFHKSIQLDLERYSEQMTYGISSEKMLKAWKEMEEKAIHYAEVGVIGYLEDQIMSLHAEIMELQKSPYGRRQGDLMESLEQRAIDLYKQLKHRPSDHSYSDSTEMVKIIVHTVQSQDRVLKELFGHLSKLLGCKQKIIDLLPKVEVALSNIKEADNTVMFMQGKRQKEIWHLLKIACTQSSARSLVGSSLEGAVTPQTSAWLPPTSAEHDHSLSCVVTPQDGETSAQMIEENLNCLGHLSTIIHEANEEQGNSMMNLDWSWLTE
T2 sequence (O15111 whole entry): as above

C=C1C(=O)O[C@@H]2[C@@H]3[C@@H](C[C@@]4(O)[C@]3(O)CC[C@]43C(=O)C[C@H]4C(=C)CC[C@H]5C(=C)C(=O)O[C@@H]5[C@H]43)C(=C)CC[C@@H]12 [Compound 1]
pIC50 (IKKβ [1]): 7.12
phosphorylation of IκBα (phosphorylation of IκBα): effectively blocked

C=C1C(=O)O[C@@H]2[C@@H]3[C@@H](C[C@@]45OC(C)(C)O[C@@]34CC[C@]53C(=O)C[C@H]4C(=C)CC[C@H]5C(=C)C(=O)O[C@@H]5[C@H]43)C(=C)CC[C@@H]12 [Compound 2]
pIC50 (IKKβ [1]): 7.25
phosphorylation of IκBα (phosphorylation of IκBα): effectively blocked

C=C1CC[C@H]2C(CN(C)C)C(=O)O[C@@H]2[C@@H]2[C@H]1C[C@@]13OC(C)(C)O[C@@]21CC[C@]31C(=O)C[C@H]2C(=C)CC[C@H]3C(CN(C)C)C(=O)O[C@@H]3[C@H]21 (stereo partly shown) [Compound 3]
pIC50 (IKKβ [1]): 7.38
phosphorylation of IκBα (phosphorylation of IκBα): effectively blocked

C=C1C(=O)O[C@@H]2[C@@H]3[C@@H](C[C@H](O)[C@]34CC[C@]3(O)[C@@H]5[C@H]6OC(=O)C(=C)[C@@H]6CCC(=C)[C@@H]5C[C@]43O)C(=C)CC[C@@H]12 [Compound 224]
biological activity (initial SAR) (NF-κB activation): fully retain the biological activity

C=C1CC[C@@H]2[C@H](OC(=O)[C@H]2C)[C@@H]2[C@H]1C[C@@]1(O)[C@]2(O)CC[C@]12C(=O)C[C@H]1C(=C)CC[C@@H]3[C@H](OC(=O)[C@H]3C)[C@H]12 [Compound 225]
biological activity (initial SAR) (NF-κB activation): inactive

CC[C@@]1(O)C(=O)OCc2c1cc1n(c2=O)Cc2cc3cc(O)ccc3nc2-1 [HCPT, 10-hydroxycamptothecin, reference compound]
side effects and body weight during administration [2]: significant body weight loss

C=C1C(=O)O[C@@H]2[C@@H]3[C@@H](C[C@H](OC(=O)CCOCCOCCOCCNC(=O)CCCC[C@@H]4SC[C@@H]5NC(=O)N[C@@H]54)[C@]34CC[C@]3(O)[C@@H]5[C@H]6OC(=O)C(=C)[C@@H]6CCC(=C)[C@@H]5C[C@]43O)C(=C)CC[C@@H]12 [Probe]
pull-down of IKKα (immunoblotting) (IKKα): specifically pulled down
pull-down of IKKβ (immunoblotting) (IKKβ [3]): specifically pulled down
interaction with peptide #2 [4]: interacted
binding to peptide #1 [5]: could bind
association with peptides #3 and #4 [6]: no association
binding to peptides 1A, 2A, 1S and 2S [7]: lost the ability to bind
interaction with recombinant IKKα (recombinant Flag-IKKα): strong interaction
